From patent publication US20120277269A1 (priority 2008, published 2012)
“And” between values parts separate entries of the source, which are not always exact repeats. Identical values can stand only once. Like-named read-outs stand apart in the source and are kept apart here.

Experiments:
[1] = test system: patients with chronic atrial fibrillation; test: PETRO phase 2 12-week dose finding study; assay type: in vivo, human
Excerpt: Primary endpoints were bleeding events and changes in D-dimer. […] Minor bleeding was dose related.

[2] = human, in vivo
Method: Ezekowitz M D, et al., Dabigatran with or without concomitant aspirin compared with warfarin alone in patients with nonvalvular atrial fibrillation (PETRO study), Am. […] The PETRO study is described below.
Peak levels are seen within 2-3 hours of oral administration. […] Steady-state is reached within 2-3 days with a twice daily regimen. […] The remainder undergoes conjugation with glucuronic acid to form acylglucuronides which are excreted primarily in the bile.

[3] = test system: patients with atrial fibrillation
Method: The PETRO-Ex study was conducted in 52 centers in the United States, Denmark, The Netherlands, and Sweden.
PETRO-Ex began while the PETRO study was ongoing and investigators were initially kept blinded to patient treatment group until PETRO was completed.
Data were summarized descriptively; no hypothesis was to be tested. Events were analyzed on the basis of the treatment at onset. Incidences were reported as number of patients with events as well as normalized to 100 patient-years on the respective treatment.
Patients who completed PETRO on 50 mg b.i.d. were switched to 150 mg q.d. upon entry in the PETRO-Ex study (N=93 patients). […] Patients who were down titrated to 50 mg q.d. based on a glomerular filtration rate ≦50 mL/min during PETRO were excluded from the long-term trial; patients down-titrated in other dose levels remained on the q.d. treatment at that dose.
The total exposure reflects both trials, PETRO and PETRO-Ex, together.

[4] = test system: activated partial thromboplastin time (aPTT), ecarin clotting time, and thrombin clotting time; test: Anticoagulant pharmacodynamics (clotting times)
[5] = test system: patients with atrial fibrillation at risk of stroke; set-up: Stroke, Ischemic or Unspecified, RR: dose or concentration left out as unconfirmed
Excerpt: Median follow-up was 2.0 years and the primary outcome was stroke or systemic embolism.
Patients were recruited from 951 clinical centers in 44 countries. In brief, patients were eligible if they had atrial fibrillation documented on electrocardiogram at screening or within 6 months; and at least one of the following: prior stroke or transient ischemic attack; left ventricular ejection fraction less than 40%; New York Heart Association heart failure symptoms of Class 2 or greater within 6 months; age at least 75 years; or age at least 65 years with diabetes mellitus, hypertension or coronary artery disease.
The time in therapeutic range was calculated by the method of Rosendaal (Rosendaal F R, et al., A method to determine the optimal intensity of oral anticoagulant therapy, Thromb Haemost, 1993, 69:236-239), excluding INRs from the first week and after discontinuations. […] Concomitant use of aspirin (less than 100 mg/day) or other antiplatelet agents was allowed.
Liver function testing was performed monthly during the first year of follow-up.
The primary study outcome was stroke or systemic embolism. The primary safety outcome was major hemorrhage. Secondary outcomes were stroke, systemic embolism and death. Other outcomes were myocardial infarction, pulmonary embolism, transient ischemic attacks, and hospitalizations. The primary net benefit-risk outcome was the composite of stroke, systemic embolism, pulmonary embolism, myocardial infarction, death or major hemorrhage. Stroke was defined as sudden onset of focal neurological deficit consistent with the territory of a major cerebral artery and categorized as ischemic, hemorrhagic or unspecified. Hemorrhagic transformation of ischemic stroke was not considered as hemorrhagic stroke. Intracranial hemorrhage included hemorrhagic stroke and sub-dural or sub-arachnoid hemorrhage. Systemic embolism was an acute vascular occlusion of an extremity or organ documented by imaging, surgery or autopsy. Major bleeding was defined as a reduction in hemoglobin level of at least […] or transfusion of at least 2 units of blood or symptomatic bleeding in a critical area or organ. Life-threatening bleeding was a subset of major bleeding that included fatal bleeding, symptomatic intracranial bleeding, bleeding with hemoglobin decrease of more than […] or requiring transfusion of more than 4 units of blood or requiring inotropic agents or necessitating surgery. All other bleeding was considered minor.
All primary and secondary outcome events were blindly and doubly adjudicated. An international team of adjudicators reviewed documents in local languages after blinding; or documents were translated by a independent group and blinded centrally. All transient ischemic attacks were reviewed to ensure that strokes had not been missed. To detect possible unreported events, symptom questionnaires were regularly administered to patients, and adverse events and hospitalization reports were scrutinized for unreported primary or secondary outcomes.
If maximum of the two p-values was greater than 0.025, the minimum of the two p-values must be less than 0.0125, one-sided, to claim statistical significance. All analyses were based on intention-to-treat.

[6] = test system: Patients with Non-Valvular Atrial Fibrillation; details: in vivo; cited from earlier work
[7] = individual patients with LFT abnormalities, one table line per patient (age c0, sex c1), # = with concomitant Bilirubin elevation to >2xULN

## CCCCCCOC(=O)NC(=N)c1ccc(NCc2nc3cc(C(=O)N(CCC(=O)OCC)c4ccccn4)ccc3n2C)cc1 [Dabigatran etexilate, 1-methyl-2-[N-[4-(N-n-hexyloxycarbonylamidino)phenyl]aminomethyl]benzimidazol-5-ylcarboxylic ac id-N-(2-pyridyl)-N-(2-ethoxycarbonylethyl)amides]
[1]; 300 mg b.i.d. plus ASA groups, 12 weeks
  Major bleeding events, number: Four
[1]; all dabigatran etexilate-treated patients
  Elevated transaminases >3× upper limit of normal (ULN): 0.9%
[1]; in vivo
  Minor bleeding: dose related
[2]; po
  Oral bioavailability, average: 6.5%
  Time to peak levels: 2 to 3 h
[3]; 50 mg b.i.d.
  ALT or AST >2xULN, number of patients: 0
  ALT or AST >3xULN and Bili >2xULN within 30 days, number of patients: 0
  ALT or AST >3xULN, number of patients: 0
  ALT or AST >5xULN, number of patients: 0
  Adverse Events leading to premature discontinuation, number of patients: 5
  MI, number of patients: 0
  Major Bleeds with aspirin, number of patients: 0
  Major Bleeds without aspirin, number of patients: 0
  Major Bleeds, number of patients: 0
  Other MACE, number of patients: 2
  Stroke and Systemic Thromboembolism, number of patients: 3
  TIA, number of patients: 0
[3]; 50 mg q.d.
  ALT or AST >2xULN, number of patients: 0
  ALT or AST >3xULN and Bili >2xULN within 30 days, number of patients: 0
  ALT or AST >3xULN, number of patients: 0
  ALT or AST >5xULN, number of patients: 0
  Adverse Events leading to premature discontinuation, number of patients: 0
  MI, number of patients: 0
  Major Bleeds with aspirin, number of patients: 0
  Major Bleeds without aspirin, number of patients: 0
  Major Bleeds, number of patients: 0
  Other MACE, number of patients: 0
  Stroke and Systemic Thromboembolism, number of patients: 0
  TIA, number of patients: 0
[3]; 150 mg b.i.d.
  ALT or AST >2xULN, number of patients: 21
  ALT or AST >3xULN and Bili >2xULN within 30 days, number of patients: 3
  ALT or AST >3xULN, number of patients: 13
  ALT or AST >5xULN, number of patients: 7
  Adverse Events leading to premature discontinuation, number of patients: 67
  MI, number of patients: 6
  Major Bleeds with aspirin, number of patients: 11
  Major Bleeds without aspirin, number of patients: 18
  Major Bleeds without aspirin, rate: 3.2 % per year
  Major Bleeds, number of patients: 29
  Other MACE, number of patients: 7
  Stroke and Systemic Thromboembolism, number of patients: 7
  TIA, number of patients: 1
[3]; 150 mg q.d.
  ALT or AST >2xULN, number of patients: 2
  ALT or AST >3xULN and Bili >2xULN within 30 days, number of patients: 0
  ALT or AST >3xULN, number of patients: 0
  ALT or AST >5xULN, number of patients: 0
  Adverse Events leading to premature discontinuation, number of patients: 8
  MI, number of patients: 0
  Major Bleeds with aspirin, number of patients: 0
  Major Bleeds without aspirin, number of patients: 3
  Major Bleeds without aspirin, rate: 6.5 % per year
  Major Bleeds, number of patients: 3
  Other MACE, number of patients: 0
  Stroke and Systemic Thromboembolism, number of patients: 3
  TIA, number of patients: 0
[3]; 300 mg b.i.d.
  ALT or AST >2xULN, number of patients: 4
  ALT or AST >3xULN and Bili >2xULN within 30 days, number of patients: 0
  ALT or AST >3xULN, number of patients: 2
  ALT or AST >5xULN, number of patients: 1
  Adverse Events leading to premature discontinuation, number of patients: 21
  MI, number of patients: 0
  Major Bleeds with aspirin, number of patients: 6
  Major Bleeds without aspirin, number of patients: 4
  Major Bleeds without aspirin, rate: 6.3 % per year
  Major Bleeds, number of patients: 10
  Other MACE, number of patients: 1
  Stroke and Systemic Thromboembolism, number of patients: 1
  TIA, number of patients: 0
[3]; 300 mg q.d.
  ALT or AST >2xULN, number of patients: 3
  ALT or AST >3xULN and Bili >2xULN within 30 days, number of patients: 1
  ALT or AST >3xULN, number of patients: 3
  ALT or AST >5xULN, number of patients: 3
  Adverse Events leading to premature discontinuation, number of patients: 19
  MI, number of patients: 1
  Major Bleeds with aspirin, number of patients: 2
  Major Bleeds without aspirin, number of patients: 3
  Major Bleeds without aspirin, rate: 2.1 % per year
  Major Bleeds, number of patients: 5
  Other MACE, number of patients: 1
  Stroke and Systemic Thromboembolism, number of patients: 5
  TIA, number of patients: 0
[3]; PETRO-Ex
  Serious adverse events: cardiac disorders, number of patients: 80
  Serious adverse events: gastrointestinal disorders, number of patients: 28
  Serious adverse events: infections, number of patients: 34
  Serious adverse events: nervous system disorders, number of patients: 33
[3]; PETRO-Ex, including bleeding and thrombotic events
  Serious adverse events, number of patients: 184
[3]; Total, all doses
  ALT or AST >2xULN, number of patients: 30
  ALT or AST >3xULN and Bili >2xULN within 30 days, number of patients: 4
  ALT or AST >3xULN, number of patients: 18
  ALT or AST >5xULN, number of patients: 11
  Adverse Events leading to premature discontinuation, number of patients: 120
  MI, number of patients: 7
  Major Bleeds with aspirin, number of patients: 19
  Major Bleeds without aspirin, number of patients: 26
  Major Bleeds without aspirin, rate: 3.2 % per year
  Major Bleeds, number of patients: 44
  Other MACE, number of patients: 11
  Stroke and Systemic Thromboembolism, number of patients: 20
  TIA, number of patients: 1
[3]; Total, all doses, listed as dabigatran etexilate
  ALT or AST >3xULN and Bili >2xULN within 30 days, number of patients: four
[4]
  Onset of anticoagulant effect after dosing: within one hour

## [H]/N=C(/N)c1ccc(NCc2nc3cc(C(=O)N(CCC(=O)O)c4ccccn4)ccc3n2C)cc1 [Dabigatran]
[2]
  Time to steady-state: 2 to 3 days
[5]
  Stroke, Ischemic or Unspecified, RR: 0.68
[5]; Dabigatran 110 mg vs. Warfarin
  Stroke, systemic embolism, pulmonary embolism, myocardial infarction death or major bleed (net benefit), RR: 0.92
[5]; Dabigatran 150 mg vs. 110 mg
  Stroke, systemic embolism, pulmonary embolism, myocardial infarction death or major bleed (net benefit), RR: 0.98
[5]; Dabigatran 150 mg vs. Warfarin
  Stroke, systemic embolism, pulmonary embolism, myocardial infarction death or major bleed (net benefit), RR: 0.90
[5]; Dabigatran 180 mg vs. 110 mg
  Stroke, RR: 0.70
[5]; human, in vivo
  Hepatotoxicity in serial measurement of liver function tests: no evidence of hepatotoxicity
[3]; [7]
  LFT abnormality ALT/ULN: >5x (4×) and >5x^# (2×) and >3x (5×) and >3x^#
  LFT abnormality AST/ULN: >5x^# (4×) and >5x (4×) and >3x (5×)
[4]
  Effect on aPTT, ecarin clotting time, and thrombin clotting time: dose dependent prolongation

## CCOC(=O)CN[C@@H](C(=O)N1CC[C@H]1C(=O)NCc1ccc(/C(N)=N\O)cc1)C1CCCCC1 [Ximelagatran]
[6]
  Hepatotoxicity: found to be hepatotoxic
